Assay [1] relates to E749-57 peptide-specific CD8^+ T cells. The experiment in a line: Primary CD8+ T cell intracellular IFN-γ response of tumor draining lymphocytes. As to conditions: one week post-vaccination. Format: in vivo, mice. Here is the method:
(§1) Spleens and/or tumor draining lymph nodes (TdLNs) were processed as described previously (7). For memory T cell typing, lymphocytes were stained with anti-CD8-APC-Cy7, anti-CD62L-FITC, and anti-CD44-APC antibodies. For intracellular cytokine staining, lymphocytes (1×10^6 cells/mL) were stimulated either with 10 μg/mL E749-57 peptide for 2 hrs followed by incubation with GolgiPlug (1 μl/mL, BD PharMingen) overnight or with phorbol 12-myristate 13-acetate (PMA) (5 ng/ml, Sigma) and ionomycin (500 ng/ml, Sigma) for 2 hrs followed by incubation with GolgiPlug (1 μl/ml) for an additional 4 hrs. Cells were first stained with anti-CD44-APC and anti-CD8-APC-Cy7, fixed with 4% paraformaldehyde, and then stained with anti-IFN-γ-PE-Cy7, anti-IL-2-Percp-Cy5.5, anti-TNF-PE, or isotype controls followed by acquisition and analysis as previously reported (12). Intratumoral CD8^+ T cells and CD4^+Foxp3^+ Treg cells were analyzed using confocal microscopy as described (12).

Assay [2] has as its system intratumoral CD8^+ T cells and CD4^+Foxp3^+ Treg cells in TC-1 tumor. In words: Intratumoral CD8+ T cells and CD4+Foxp3+ Treg cells by confocal microscopy. The conditions noted are these: one week post-vaccination. Format: in vivo, mice. The protocol:
as §1
Mice bearing ˜3-4 mm TC-1 tumor were vaccinated subcutaneously with various vaccine formulations. One week post-vaccination, tumors were harvested and analyzed for the presence of intratumoral CD8^+ T cells and CD4^+FoxP3^+ Treg cells using confocal microscopy. […] (FIG. 3A, B).

For the next assay, the system named is TC-1 target cells. The experiment in a line: Cytotoxicity assay. The assay is classed as cell-based, mice. As to conditions: splenocytes one week post-vaccination, 5 days E749-57 + IL-2, effectors against TC-1 for 4 hrs. The protocol: Mice with ˜3-4 mm TC-1 tumors in diameter were vaccinated subcutaneously with vaccine formulations containing E7 protein (50 μg) alone or with SA-4-1BBL (25 μg), MPL (25 μg), or the combination of both agents (25 μg/agent). One week post-vaccination, splenocytes were cultured with 10 μg of E749-57 peptide/mL in complete MLR medium supplemented with 50 IU/mL of IL-2. Viable lymphocytes were harvested 5 days later using a Ficoll gradient and used as effectors at various ratios against TC-1 target cells for 4 hrs as described (41).

The subject of assay [3] is TC-1 tumors. The experiment in a line: Therapeutic vaccination in the established TC-1 tumor model. The assay is classed as in vivo, C57BL/6 mice. The conditions noted are these: single subcutaneous vaccination day 6 post-tumor challenge, E7 protein 50 μg plus adjuvant 25 μg/agent; 90 days observation. From the text:
(§2) C57BL/6 mice were challenged subcutaneously with 1×10^5 live TC-1 cells into the right flank.

In assay [4] the test system is TC-1 tumors. In words: TC-1 tumor model with antibody depletion of CD8+ or CD4+ T cells before vaccination. Format: in vivo, mice. As to conditions: E7 + MPL. Here is the method:
as §2
To test if a high CD8^+ Teff/Treg cell ratio can serve as a predictor of vaccine therapeutic efficacy, we used antibodies against CD8 and CD4 molecules to deplete CD8^+ Teff and Treg cells, respectively. Mice with established TC-1 tumors were treated with depleting antibodies one day before vaccination with E7 protein admixed with SA-4-1BBL/MPL or MPL as monotherapy.

The test system of assay [5] is 3LL pulmonary metastatic tumors. The experiment in a line: 3LL pulmonary metastasis model, vaccination with survivin. Format: in vivo, mice. As to conditions: single subcutaneous vaccination day 6 with SVN 50 μg plus adjuvant; lungs day 27. Here is the method: For the pulmonary tumor model, 2×10^5 live 3LL cells were injected intravenously into the tail vein of mice. Mice were vaccinated subcutaneously either once on day 6 or twice on days 6 and 13 post-tumor challenge with various vaccine formulations containing survivin (SVN) protein (50 μg) alone as control or with SA-4-1BBL (25 μg), MPL (25 gig), or the combination of both agents (25 μg/agent). Mice were euthanized 27 days post-tumor challenge for analysis of lung tumor burden as described (12, 18).

Consider “3-O-desacyl-4′-monophosphoryl lipid A [MPL]”, for which the “E7 TAA-specific CD8+ T cell IFN-γ response (primary)” value in assay [1] is given as “failed to do so”. Moreover, in assay [2] (TC-1 tumor), the “intratumoral Teff/Treg cell ratio” value is reported as “no effect” and the “number of intratumoral CD8+ T cells infiltration” value is “moderate effect”. Further, in assay [2] (~3-4 mm TC-1 tumor, versus PBS controls or E7 protein alone), the “number of intratumoral Treg cells” value is recorded as “did not have detectable effect”. Also, the TC-1 killing response result with TC-1 target cells is recorded as “failed to do so”. The “eradication of established TC-1 tumors, mice tumor-free” value with TC-1 tumors [3] was 50%. In the assay with TC-1 tumors [4] (depletion of CD4+ T cells including Treg cells one day before vaccination), the therapeutic efficacy is 100%. Moreover, in the assay on TC-1 tumors [4] (without depletion), the therapeutic efficacy is recorded as 50%. In assay [5], the “control of tumor growth (lung weight and presence of tumor nodules)” value is reported as “statistically significant (P<0.05) effect in controlling tumor growth”.

For the origin of these results see patent US20140199347A1, “ADJUVANT COMPOSITIONS WITH 4-1BBL” (UNIVERSITY OF LOUISVILLE RESEARCH FOUNDATION, INC., priority 2011, published 2014).
